Test results: patent US20110195892A1, “Artifical Pulmonary Surfactant Compositions” (priority 2005, published 2011)
Square brackets hold non-standard residues; d marks the D form. Peptide text beside a SMILES is read from it.

Assays:
erythrocyte = assay type: cell-based
Experimental: The hemolytic activity of each peptide was measured in the way as will be described hereinafter.
Each peptide (ca. 1 mg) was dissolved in 20 (l of 100% acetic acid and diluted with phosphate buffer to reach a total amount of 5 ml. The resulting solution was measured for its absorbency (280 nm) to determine its concentration. The solution was then used for experiments in situ by dilution with phosphate buffer.
A blood sample (ca. 3 ml) was centrifuged at 2,000 rpm at 4° C. for 10 minutes and the supernatant was removed to form an erythrocyte sample. To the erythrocyte sample was added 1 ml of phosphate buffer, and the resulting solution was stirred well, followed by centrifugation in the manner as described above. These procedures were repeated three times to obtain the erythrocyte alone. Moreover, 1 ml of phosphate buffer was added to the resulting erythrocyte, and the resulting mixture was stirred well, followed by distributing it by 60 μl to microtubes and centrifuging to remove the supernatant therefrom. The resulting erythrocyte was in turn used for further experiments.
The peptide and a protein solution were then added by 1 ml to the erythrocyte sample, and the resulting solution was stirred well, followed by allowing it to stand at 25° C. for 60 minutes. Thereafter, the tubes were centrifuged to collect the supernatant only (100 μl) which was in turn measured at an absorbency of 542 nm. The supernatant was then returned to each tube and a drop of surfactant Triton® X was added to each tube, followed by stirring it well and measuring for its absorbency at 542 nm.

[1] = Wilhelmy tensiometer; Japanese Patent Publication No. 2004-305006 A1; cited from earlier work

Compound	hemolytic activity of the peptide itself compared to peptide Hel 13-5 (erythrocyte)	hemolytic activity (in words) (erythrocyte)	hemolytic property (erythrocyte)	surface tension-surface area curve (hysteresis curve) compared with Surfacten [1]
CC(C)C[C@H](NC(=O)[C@H](CC(C)C)NC(=O)[C@H](CC(C)C)NC(=O)[C@H](CCCCN)NC(=O)[C@@H](CC(C)C)NC(=O)[C@H](CC(C)C)NC(=O)[C@H](CCCCN)NC(=O)[C@H](CC(C)C)NC(=O)[C@H](Cc1c[nH]c2ccccc12)NC(=O)[C@H](CC(C)C)NC(=O)[C@@H](CCCCN)NC(=O)[C@@H](CC(C)C)NC(=O)[C@H](CC(C)C)NC(=O)[C@H](CC(C)C)NC(=O)[C@H](CCCCN)NC(=O)[C@H](CC(C)C)NC(=O)[C@H](CC(C)C)NC(=O)[C@@H](N)CCCCN)C(=O)O [Hel 13-5D3, NH2-Lys Leu Leu Lys Leu Leu D-Leu D-Lys Leu Trp Leu Lys D-Leu Leu Lys Leu Leu Leu-COOH] (H-KLLKLL[dL][dK]LWLKL[dL]KLLL-OH)	lower by several times	–	–	–
H-KLLKLLLKLWLKLLKLLL-OH [Hel 13-5, NH2-Lys Leu Leu Lys Leu Leu Leu Lys Leu Trp Leu Lys Leu Leu Lys Leu Leu Leu-COOH]	–	strong hemolytic activity	does not demonstrate a hemolytic property	equal curve to that of Surfacten®
